Experimental data as given in patent US20160281050A1, “METHODS FOR TREATING A CULTURE OF HAEMATOCOCCUS PLUVIALIS FOR CONTAMINATION USING SALT AND HYDROGEN PEROXIDE” (HELIAE DEVELOPMENT LLC, priority 2015, published 2016).
Where two headings read alike, the source gives them in different places.

Tests used:
[1] = test system: Haematococcus pluvialis (Strain 1) green swimmer cells
Method: (§1) An experiment was conducted to determine if treating a culture of Haematococcus pluvialis with hydrogen peroxide affects the live bacteria count. […] The culture in bioreactor #2210 was treated with 0.33 mL/L hydrogen peroxide 3% stock concentration (calculated concentration of 0.0099 mL/L) every 6 hours for the duration of the culture's green swimmer stage (90 hours). The culture in bioreactor #2230 was not treated to serve as a control for comparison. Samples were taken to assess motility, lysis, and the live bacteria count in the cultures at 11, 34, 52, and 66 hours.

[2] = test system: live bacteria; conditions: 0.0099 mL/L every 6 hours
Method: as §1

[3] = test system: chytrids;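 also: flask cultures run as treated duplicates beside untreated duplicate controls, with dosing halted by day 5 once lysis topped 10% and recovery afterwards tracked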
Description: Culture samples of Haematococcus pluvialis (Strain 2) were collected on day 5 of the culture from open raceway bioreactor #2420 operating in conditions: reactor volume of 170,000 L; Daily PAR not measured; pH of 7.3; and paddlewheel speed of 70%). Culture samples were distributed into flasks for culturing, consisting of duplicate untreated controls and duplicate treatments. […] Samples were taken from the flask cultures every few days in order to quantify % lysis, % chytrid infection, and cell dry weight for a duration of about 11 days.

[4] = test system: Haematococcus pluvialis (Strain 2); test: % lysis and culture dry weight in flasks (Example 10);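 also: flask cultures run in duplicate, with duplicate untreated flasks serving as controls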
Description: Culture samples of Haematococcus pluvialis (Strain 2) were collected on the second day of the culture from open raceway bioreactor #2430 operating in conditions: reactor volume of 170,000 L; Daily PAR not measured; pH of 7.3; and paddlewheel speed of 70. The culture samples were distributed into flasks for culturing, consisting of duplicate untreated controls and duplicate treatments. […] Samples were taken from the flask cultures daily to quantify % lysis and % chytrid infection and cell dry weight was quantified every other day for a duration of 11 days.

[5] = test system: Haematococcus pluvialis (Strain 2); test: % lysis and culture dry weight in flasks (Example 11)
Description: Culture samples of Haematococcus pluvialis (Strain 2) were collected on the second day of culture from open raceway bioreactor #2410 operating in conditions: reactor volume of 150,000 L; Daily PAR of 9.77 mol m^−2 d^−1; pH of 7.3; and paddlewheel speed of 70%. Culture samples were distributed into flasks for culturing, consisting of duplicate untreated controls and duplicate treatments. […] Samples were taken from the flask cultures daily to quantify % lysis and % chytrid infection and cell dry weight was quantified every other day for a duration of 11 days.

[6] = 0.0140 mL/L 1 time per day, day 0
[7] = 0.0140 mL/L 1 time per day, day 3
[8] = 0.0140 mL/L 1 time per day, day 4
[9] = 0.0105 mL/L 1 time per day, day 3
[10] = 0.0105 mL/L 1 time per day, day 4
[11] = 0.0105 mL/L 1 time per day, day 5
[12] = 0.0105 mL/L 1 time per day, day 6
[13] = 0.0105 mL/L 1 time per day, day 7

## hydrogen peroxide [H2O2]
[1]
  Motility: above 60%
  lysis: ≤ 15%
[2]; vs untreated control
  reduction in the bacteria count: approximately 1 log
[2]; 11 h
  Live Bacteria Count: 4.8 × 10^5 CFU/mL
[2]; 34 h
  Live Bacteria Count: 5.5 × 10^6 CFU/mL
[2]; 52 h
  Live Bacteria Count: 1.8 × 10^5 CFU/mL
[2]; 66 h
  Live Bacteria Count: 4.5 × 10^5 CFU/mL
[3]; 0.0105 mL/L 3 times per day (discontinued day 5), day 6
  % Chytrid infection: 2.5 ± 1.2%
[3]; 0.0105 mL/L 3 times per day (discontinued day 5), day 9
  % Chytrid infection: 7.5 ± 3.5%
[3]; 0.0105 mL/L 3 times per day (discontinued day 5), day 11
  % Chytrid infection: 100.0 ± 0.0%
[3]; 0.0105 mL/L 3 times per day, day 0
  % Chytrid infection: 0.0 ± 0.0%
[3]; 0.0105 mL/L 3 times per day, day 3
  % Chytrid infection: 0.8 ± 1.2%
[3]; 0.0105 mL/L 3 times per day, day 4
  % Chytrid infection: 2.5 ± 3.5%
[3]; 0.0105 mL/L 3 times per day, day 5
  % Chytrid infection: 1.7 ± 0.0%
[3]; 0.0140 mL/L 1 time per day (discontinued day 5), day 6
  % Chytrid infection: 2.5 ± 1.2%
[3]; 0.0140 mL/L 1 time per day (discontinued day 5), day 9
  % Chytrid infection: 0.0 ± 0.0%
[3]; 0.0140 mL/L 1 time per day (discontinued day 5), day 11
  % Chytrid infection: 35.8 ± 29.5%
[3]; [6]
  % Chytrid infection: 0.0 ± 0.0%
[3]; [7]
  % Chytrid infection: 0.0 ± 0.0%
[3]; [8]
  % Chytrid infection: 0.0 ± 0.0%
[3]; 0.0140 mL/L 2 times per day (discontinued day 5), day 6
  % Chytrid infection: 5.8 ± 3.5%
[3]; 0.0140 mL/L 2 times per day (discontinued day 5), day 9
  % Chytrid infection: 43.3 ± 4.7%
[3]; 0.0140 mL/L 2 times per day (discontinued day 5), day 11
  % Chytrid infection: 97.5 ± 3.5%
[3]; 0.0140 mL/L 2 times per day, day 0
  % Chytrid infection: 0.0 ± 0.0%
[3]; 0.0140 mL/L 2 times per day, day 3
  % Chytrid infection: 2.5 ± 1.2%
[3]; 0.0140 mL/L 2 times per day, day 4
  % Chytrid infection: 2.5 ± 3.5%
[3]; 0.0140 mL/L 2 times per day, day 5
  % Chytrid infection: 5.0 ± 4.7%
[3]; 0.0140 mL/L 3 times per day (discontinued day 5), day 6
  % Chytrid infection: 0.0 ± 0.0%
[3]; 0.0140 mL/L 3 times per day (discontinued day 5), day 9
  % Chytrid infection: 0.0 ± 0.0%
[3]; 0.0140 mL/L 3 times per day (discontinued day 5), day 11
  % Chytrid infection: 11.7 ± 16.5%
[3]; 0.0140 mL/L 3 times per day, day 0
  % Chytrid infection: 0.0 ± 0.0%
[3]; 0.0140 mL/L 3 times per day, day 3
  % Chytrid infection: 3.3 ± 4.7%
[3]; 0.0140 mL/L 3 times per day, day 4
  % Chytrid infection: 0.0 ± 0.0%
[3]; 0.0140 mL/L 3 times per day, day 5
  % Chytrid infection: 0.0 ± 0.0%
[3]; 0.0175 mL/L 1 time per day (discontinued day 5), day 6
  % Chytrid infection: 0.0 ± 0.0%
[3]; 0.0175 mL/L 1 time per day (discontinued day 5), day 9
  % Chytrid infection: 0.0 ± 0.0%
[3]; 0.0175 mL/L 1 time per day (discontinued day 5), day 11
  % Chytrid infection: 34.2 ± 27.1%
[3]; 0.0175 mL/L 1 time per day, day 0
  % Chytrid infection: 0.0 ± 0.0%
[3]; 0.0175 mL/L 1 time per day, day 3
  % Chytrid infection: 0.8 ± 1.2%
[3]; 0.0175 mL/L 1 time per day, day 4
  % Chytrid infection: 1.7 ± 0.0%
[3]; 0.0175 mL/L 1 time per day, day 5
  % Chytrid infection: 1.7 ± 0.0%
[3]; all treated flasks, until 4-6 days after treatment ended
  chytrid infection: less than 10%
[4]; 0.0105 mL/L 1 time per day for 3 d then every other day, day 0
  % Lysis: 0.8 ± 2.0%
[4]; 0.0105 mL/L 1 time per day for 3 d then every other day, day 3
  % Lysis: 0.0 ± 0.0%
[4]; 0.0105 mL/L 1 time per day for 3 d then every other day, day 4
  % Lysis: 1.7 ± 0.0%
[4]; 0.0105 mL/L 1 time per day for 3 d then every other day, day 5
  % Lysis: 1.7 ± 2.4%
[4]; 0.0105 mL/L 1 time per day for 3 d then every other day, day 6
  % Lysis: 3.3 ± 4.7%
[4]; 0.0105 mL/L 1 time per day for 3 d then every other day, day 7
  % Lysis: 0.0 ± 0.0%
[4]; 0.0105 mL/L 1 time per day for 3 d then every other day, day 8
  % Lysis: 0.8 ± 1.2%
[4]; 0.0105 mL/L 1 time per day for 3 d then every other day, day 9
  % Lysis: 0.8 ± 1.2%
[4]; 0.0105 mL/L 1 time per day for 3 d then every other day, day 10
  % Lysis: 0.8 ± 1.2%
[4]; 0.0105 mL/L 1 time per day, day 0
  % Lysis: 0.8 ± 2.0%
[4]; [9]
  % Lysis: 0.0 ± 0.0%
[4]; [10]
  % Lysis: 1.7 ± 0.0%
[4]; [11]
  % Lysis: 1.7 ± 0.0%
[4]; [12]
  % Lysis: 0.8 ± 2.0%
[4]; [13]
  % Lysis: 0.0 ± 0.0%
[4]; 0.0105 mL/L 1 time per day, day 8
  % Lysis: 1.7 ± 2.4%
[4]; 0.0105 mL/L 1 time per day, day 9
  % Lysis: 7.5 ± 8.3%
[4]; 0.0105 mL/L 1 time per day, day 10
  % Lysis: 0.0 ± 0.0%
[4]; 0.0105 mL/L, for 11 days
  percent lysis: under 10%
[4]; 0.0140 mL/L 1 time per day for 3 d then every other day, day 0
  % Lysis: 0.8 ± 2.0%
[4]; 0.0140 mL/L 1 time per day for 3 d then every other day, day 3
  % Lysis: 4.2 ± 1.2%
[4]; 0.0140 mL/L 1 time per day for 3 d then every other day, day 4
  % Lysis: 10.0 ± 8.7%
[4]; 0.0140 mL/L 1 time per day for 3 d then every other day, day 5
  % Lysis: 15.8 ± 5.9%
[4]; 0.0140 mL/L 1 time per day for 3 d then every other day, day 6
  % Lysis: 6.7 ± 0.0%
[4]; 0.0140 mL/L 1 time per day for 3 d then every other day, day 7
  % Lysis: 13.3 ± 4.7%
[4]; 0.0140 mL/L 1 time per day for 3 d then every other day, day 8
  % Lysis: 13.3 ± 2.4%
[4]; 0.0140 mL/L 1 time per day for 3 d then every other day, day 9
  % Lysis: 5.0 ± 2.4%
[4]; 0.0140 mL/L 1 time per day for 3 d then every other day, day 10
  % Lysis: 15.8 ± 12.9%
[4]; [6]
  % Lysis: 0.8 ± 2.0%
[4]; [7]
  % Lysis: 4.2 ± 1.2%
[4]; [8]
  % Lysis: 10.0 ± 8.7%
[4]; 0.0140 mL/L 1 time per day, day 5
  % Lysis: 10.0 ± 2.4%
[4]; 0.0140 mL/L 1 time per day, day 6
  % Lysis: 9.2 ± 3.5%
[4]; 0.0140 mL/L 1 time per day, day 7
  % Lysis: 20.0 ± 9.4%
[4]; 0.0140 mL/L 1 time per day, day 8
  % Lysis: 6.7 ± 7.0%
[4]; 0.0140 mL/L 1 time per day, day 9
  % Lysis: 21.7 ± 7.1%
[4]; 0.0140 mL/L 1 time per day, day 10
  % Lysis: 9.2 ± 3.5%
[4]; 0.0140 mL/L, by day 7
  percent lysis reached: 20%
[4]; 0.0175 mL/L 1 time per day for 2 d then every other, day 0
  % Lysis: 0.8 ± 2.0%
[4]; 0.0175 mL/L 1 time per day for 2 d then every other, day 3
  % Lysis: 31.7 ± 11.8%
[4]; 0.0175 mL/L 1 time per day for 2 d then every other, day 4
  % Lysis: 22.2 ± 8.5%
[4]; 0.0175 mL/L 1 time per day for 2 d then every other, day 5
  % Lysis: 19.2 ± 17.6%
[4]; 0.0175 mL/L 1 time per day for 2 d then every other, day 6
  % Lysis: 25 ± 0.0%
[4]; 0.0175 mL/L, by day 3 after only being dosed twice
  percent lysis reached: 30%
[5]; 0.0105 mL/L 1 time daily for 3 days, day 1
  % Lysis: 5.0 ± 5.0%
[5]; 0.0105 mL/L 1 time daily for 3 days, day 2
  % Lysis: 3.3 ± 0.0%
[5]; 0.0105 mL/L 1 time daily for 3 days, day 3
  % Lysis: 7.5 ± 1.2%
[5]; 0.0105 mL/L 1 time daily for 3 days, day 4
  % Lysis: 0.8 ± 1.2%
[5]; 0.0105 mL/L 1 time daily for 3 days, day 5
  % Lysis: 5.0 ± 0.0%
[5]; 0.0105 mL/L 1 time daily for 3 days, day 6
  % Lysis: 4.2 ± 1.2%
[5]; 0.0105 mL/L 1 time daily for 3 days, day 7
  % Lysis: 1.7 ± 2.4%
[5]; 0.0105 mL/L 1 time every other day, day 1
  % Lysis: 5.0 ± 5.0%
[5]; 0.0105 mL/L 1 time every other day, day 2
  % Lysis: 3.3 ± 2.4%
[5]; 0.0105 mL/L 1 time every other day, day 3
  % Lysis: 4.2 ± 1.2%
[5]; 0.0105 mL/L 1 time every other day, day 4
  % Lysis: 3.3 ± 0.0%
[5]; 0.0105 mL/L 1 time every other day, day 5
  % Lysis: 3.3 ± 2.4%
[5]; 0.0105 mL/L 1 time every other day, day 6
  % Lysis: 3.3 ± 2.4%
[5]; 0.0105 mL/L 1 time every other day, day 7
  % Lysis: 3.3 ± 0.0%
[5]; 0.0105 mL/L 1 time per day, day 1
  % Lysis: 5.0 ± 5.0%
[5]; 0.0105 mL/L 1 time per day, day 2
  % Lysis: 2.5 ± 1.2%
[5]; [9]
  % Lysis: 5.8 ± 3.5%
[5]; [10]
  % Lysis: 4.2 ± 1.2%
[5]; [11]
  % Lysis: 4.2 ± 3.5%
[5]; [12]
  % Lysis: 0.0 ± 0.0%
[5]; [13]
  % Lysis: 2.4 ± 0.0%
[5]; flasks across treatments, 0.0105 mL/L
  cell lysis: below 10%
